Data taken from PubChem BioAssay (NCI).
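How tested: cells in 96-well plates exposed to compound for 48 hours at five concentrations. At the GI50, growth is halved. The concentration for full growth arrest is given as TGI.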

Key:
Assay in all cases: growth of human tumour cells (NCI), 48 h
786-0 renal = tested on: 786-0 renal
A498 renal = tested on: A498 renal
A549 NSCLC = tested on: A549 NSCLC
ACHN renal = tested on: ACHN renal
CAKI-1 renal = tested on: CAKI-1 renal
CCRF-CEM leukemia = tested on: CCRF-CEM leukemia
COLO 205 colon = tested on: COLO 205 colon
DLD-1 colon = tested on: DLD-1 colon
DMS 273 small cell lung = tested on: DMS 273 small cell lung
HCC-2998 colon = tested on: HCC-2998 colon
HCT-116 colon = tested on: HCT-116 colon
HCT-15 colon = tested on: HCT-15 colon
HL-60(TB) leukemia = tested on: HL-60(TB) leukemia
HOP-18 NSCLC = tested on: HOP-18 NSCLC
HOP-62 NSCLC = tested on: HOP-62 NSCLC
HOP-92 NSCLC = tested on: HOP-92 NSCLC
HT29 colon = tested on: HT29 colon
IGROV1 ovarian = tested on: IGROV1 ovarian
K-562 leukemia = tested on: K-562 leukemia
KM12 colon = tested on: KM12 colon
KM20L2 colon = tested on: KM20L2 colon
LOX IMVI melanoma = tested on: LOX IMVI melanoma
LXFL 529 NSCLC = tested on: LXFL 529 NSCLC
M14 melanoma = tested on: M14 melanoma
MALME-3M melanoma = tested on: MALME-3M melanoma
MOLT-4 leukemia = tested on: MOLT-4 leukemia
NCI-H226 lung = tested on: NCI-H226 lung
NCI-H460 lung = tested on: NCI-H460 lung
OVCAR-3 ovarian = tested on: OVCAR-3 ovarian
OVCAR-4 ovarian = tested on: OVCAR-4 ovarian
OVCAR-8 ovarian = tested on: OVCAR-8 ovarian
RPMI-8226 leukemia = tested on: RPMI-8226 leukemia
SF-268 CNS = tested on: SF-268 CNS
SF-295 CNS = tested on: SF-295 CNS
SF-539 CNS = tested on: SF-539 CNS
SK-MEL-2 melanoma = tested on: SK-MEL-2 melanoma
SK-MEL-28 melanoma = tested on: SK-MEL-28 melanoma
SK-MEL-5 melanoma = tested on: SK-MEL-5 melanoma
SK-OV-3 ovarian = tested on: SK-OV-3 ovarian
SN12C renal = tested on: SN12C renal
SNB-19 CNS = tested on: SNB-19 CNS
SNB-75 CNS = tested on: SNB-75 CNS
SW-620 colon = tested on: SW-620 colon
TK-10 renal = tested on: TK-10 renal
U251 CNS = tested on: U251 CNS
UACC-257 melanoma = tested on: UACC-257 melanoma
UACC-62 melanoma = tested on: UACC-62 melanoma
UO-31 renal = tested on: UO-31 renal

`C1C[OH+]CCNCC[OH+]CC[OH+]CCN1.O.[Cl-].[Pt+4]` was tested, and the GI50 (786-0 renal) was over 100 µM, the TGI (786-0 renal) was over 100 µM and the GI50 (A498 renal) was over 100 µM. It also gave a TGI (A498 renal) of over 100 µM, a GI50 (A549 NSCLC) of over 100 µM and a TGI (A549 NSCLC) of over 100 µM. For the same compound, the GI50 (ACHN renal) was over 100 µM, the TGI (ACHN renal) was over 100 µM and the GI50 (CAKI-1 renal) was over 100 µM. For the same compound, the TGI (CAKI-1 renal) was over 100 µM, the GI50 (CCRF-CEM leukemia) was over 100 µM and the TGI (CCRF-CEM leukemia) was over 100 µM. It also gave a GI50 (COLO 205 colon) of over 100 µM, a TGI (COLO 205 colon) of over 100 µM and a GI50 (DLD-1 colon) of over 100 µM. The TGI (DLD-1 colon) was over 100 µM, the GI50 (DMS 273 small cell lung) was over 100 µM and the TGI (DMS 273 small cell lung) was over 100 µM. The GI50 (HCC-2998 colon) was over 100 µM, the TGI (HCC-2998 colon) was over 100 µM and the GI50 (HCT-116 colon) was over 100 µM. For the same compound, the TGI (HCT-116 colon) was over 100 µM, the GI50 (HCT-15 colon) was over 100 µM and the TGI (HCT-15 colon) was over 100 µM. The GI50 (HL-60(TB) leukemia) was over 100 µM, the TGI (HL-60(TB) leukemia) was over 100 µM and the GI50 (HOP-18 NSCLC) was over 100 µM. The TGI (HOP-18 NSCLC) was over 100 µM, the GI50 (HOP-62 NSCLC) was over 100 µM and the TGI (HOP-62 NSCLC) was over 100 µM. The GI50 (HOP-92 NSCLC) was over 10 µM, the TGI (HOP-92 NSCLC) was over 10 µM and the GI50 (HT29 colon) was over 100 µM. It also gave a TGI (HT29 colon) of over 100 µM, a GI50 (IGROV1 ovarian) of over 100 µM and a TGI (IGROV1 ovarian) of over 100 µM. The GI50 (K-562 leukemia) was over 100 µM, the TGI (K-562 leukemia) was over 100 µM and the GI50 (KM12 colon) was over 100 µM. The TGI (KM12 colon) was over 100 µM, the GI50 (KM20L2 colon) was over 100 µM and the TGI (KM20L2 colon) was over 100 µM. It also gave a GI50 (LOX IMVI melanoma) of over 100 µM, a TGI (LOX IMVI melanoma) of over 100 µM and a GI50 (LXFL 529 NSCLC) of over 100 µM. For the same compound, the TGI (LXFL 529 NSCLC) was over 100 µM, the GI50 (M14 melanoma) was over 10 µM and the TGI (M14 melanoma) was over 10 µM. For the same compound, the GI50 (MALME-3M melanoma) was over 100 µM, the TGI (MALME-3M melanoma) was over 100 µM and the GI50 (MOLT-4 leukemia) was over 100 µM. The TGI (MOLT-4 leukemia) was over 100 µM, the GI50 (NCI-H226 lung) was over 100 µM and the TGI (NCI-H226 lung) was over 100 µM. It also gave a GI50 (NCI-H460 lung) of over 100 µM, a TGI (NCI-H460 lung) of over 100 µM and a GI50 (OVCAR-3 ovarian) of over 100 µM. The TGI (OVCAR-3 ovarian) was over 100 µM, the GI50 (OVCAR-4 ovarian) was over 100 µM and the TGI (OVCAR-4 ovarian) was over 100 µM. For the same compound, the GI50 (OVCAR-8 ovarian) was over 100 µM, the TGI (OVCAR-8 ovarian) was over 100 µM and the GI50 (RPMI-8226 leukemia) was over 100 µM. It also gave a TGI (RPMI-8226 leukemia) of over 100 µM, a GI50 (SF-268 CNS) of over 100 µM and a TGI (SF-268 CNS) of over 100 µM. It also gave a GI50 (SF-295 CNS) of over 100 µM, a TGI (SF-295 CNS) of over 100 µM and a GI50 (SF-539 CNS) of over 100 µM. It also gave a TGI (SF-539 CNS) of over 100 µM, a GI50 (SK-MEL-2 melanoma) of over 100 µM and a TGI (SK-MEL-2 melanoma) of over 100 µM. The GI50 (SK-MEL-28 melanoma) was over 100 µM, the TGI (SK-MEL-28 melanoma) was over 100 µM and the GI50 (SK-MEL-5 melanoma) was over 100 µM. The TGI (SK-MEL-5 melanoma) was over 100 µM, the GI50 (SK-OV-3 ovarian) was over 100 µM and the TGI (SK-OV-3 ovarian) was over 100 µM. The GI50 (SN12C renal) was over 100 µM, the TGI (SN12C renal) was over 100 µM and the GI50 (SNB-19 CNS) was over 100 µM. For the same compound, the TGI (SNB-19 CNS) was over 100 µM, the GI50 (SNB-75 CNS) was over 100 µM and the TGI (SNB-75 CNS) was over 100 µM. It also gave a GI50 (SW-620 colon) of over 100 µM, a TGI (SW-620 colon) of over 100 µM and a GI50 (TK-10 renal) of over 100 µM. It also gave a TGI (TK-10 renal) of over 100 µM, a GI50 (U251 CNS) of over 100 µM and a TGI (U251 CNS) of over 100 µM. For the same compound, the GI50 (UACC-257 melanoma) was over 100 µM, the TGI (UACC-257 melanoma) was over 100 µM and the GI50 (UACC-62 melanoma) was over 100 µM. For the same compound, the TGI (UACC-62 melanoma) was over 100 µM, the GI50 (UO-31 renal) was over 100 µM and the TGI (UO-31 renal) was over 100 µM.
